Usually viability, T/C stands for the ratio of treated to control. The term IC50 denotes the midpoint of a concentration-inhibition curve.

Several values for one entry are separate records, joined by “and”; a condition that tells them apart may be missing. Equal values may be shown once.

This passage reports viability, T/C and IC50 results from PubChem BioAssay AID2060609 (Molecular Pharmacology Branch, DTP, NCI, 2025).

The assay concerns 855422-203-R-J1-PDC complex spheroids, viability. The experiment in a line: Anticancer human tumor 855422-203-R-J1-PDC patient-derived bladder carcinoma cell line growth inhibition [CLK]. The conditions noted are these: for viability, T/C: stronger effect = lower value; for IC50: curve of compound. From the text:
A high-throughput screen of multi-cell type tumor spheroids was designed to identify active combinations of […] and targeted small molecules. Complex spheroids include a stromal component modeled by human endothelial cells (HUVEC) and fibroblasts modeled by human mesenchymal stem cells (MSCs). The concentration ranges selected for each drug and investigational agent were based upon clinically achievable concentrations if the clinical Cmax of the agent was known.
Compounds. The drugs and investigational agents: cirtuvivint (SM08502; NSC835563), CC-671 (NSC850746), vemurafenib (NSC761431), tapotoclax (NSC804041), sotorasib (NSC818433), adagrasib (NSC831453), MRTX-1133 (NSC836407), BAY2416964 (NSC825713), copanlisib (NSC816437), inavolisib (NSC800729), abemaciclib (NSC768073), osimertinib (NSC779217), entinostat (NSC756642), eltanexor (KPT-8602, NSC794443), venetoclax (NSC766270), ceralasertib (NSC777638), bortezomib (NSC756655), olaparib (NSC753686), talazoparib (NSC767125), alisertib (NSC759677), peposertib (NSC802822), gemcitabine (NSC613327), 5-fluorouracil (NSC19893), SN-38 (NSC673596), oxaliplatin (NSC266046), paclitaxel (NSC125973), and doxorubicin (NSC123127), were obtained from the National Cancer Institute (NCI) Developmental Therapeutics Program Chemical Repository. The FDA-approved anticancer drug set is available from the Developmental Therapeutics Program at https://dtp.cancer.gov/organization/dscb/obtaining/available plates.htm. […] The stock solutions were prepared in dimethyl sulfoxide (DMSO, Sigma-Aldrich, St. Louis, MO, cat. D2650), except for the platinum complexes which were prepared in saline (Quality Biological, Gaithersburg, MD, cat. 114-055-101), at 800-fold the tested concentration and stored at -70 degrees C prior to their use. All drugs and investigational agents were tested over a range starting from a high concentration at or near the clinical Cmax and decreasing in half-log increments. If the clinical Cmax for an agent had not been determined, the highest concentration tested was 10 microM.
Cell Culture. All cells were maintained in an incubator at 37 degrees C and 5% CO2 with 95% humidity. The PDC lines were cultured according to standard operating procedures established by the NCI PDMR. Briefly, all PDCs were thawed and cultured in Matrigel-coated flasks prepared with a working solution of 1X Ham's F-12 nutrient mix, without supplementation (Invitrogen, Waltham, MA, cat. 11765054), 100 U/mL penicillin-streptomycin (Invitrogen, cat. 15140122), and 2.5% Matrigel (Corning Inc., Corning, NY, cat. 354248) for the first three passages. The 947758-054-R-J2-PDC line was cultured in 6B/Colon 1A media, which includes advanced DMEM/F-12 (Thermo Fisher Scientific, cat. 12634028), 10 mM HEPES (Thermo Fisher Scientific, cat. 15630080), 1X GlutaMAX supplement (Thermo Fisher Scientific, cat. 35050061), 0.1 mg/mL primocin (InvivoGen, cat. ant-pm-2), 10% defined fetal bovine serum, heat inactivated (HyClone Laboratories Inc., cat. SH30070.03HI), 1.25 mM N-Acetyl-L-cysteine (Sigma-Aldrich, cat. A9165), 10 mM nicotinamide (Sigma-Aldrich, cat. N0636), 1X B-27 supplement (Thermo Fisher Scientific, cat. 17504044), 1X N-2 supplement (Thermo Fisher Scientific, cat. 17502048), and 10 microM Y-27632 dihydrochloride (Tocris Bioscience, cat. 1254). The 876862-298-R-J1-PDC was cultured in 6E media, which includes all 6B/Colon 1A media components plus 50% L-WRN conditioned media (ATCC, cat. CRL-3276), 50 ng/mL recombinant human EGF recombinant protein (hEGF; Thermo Fisher Scientific, cat. PHG0311), 10 ng/mL recombinant human fibroblast growth factor 10 (hGFG-10; PeproTech, cat. 100-26), 1 ng/mL recombinant human fibroblast growth factor 2 (hFGF-2; PeproTech, cat. 100-18B), and 1 µM prostaglandin E2 (PGE2; Tocris, cat. 2296). The 227483-062-R1-J1-PDC line was cultured in Panc media, containing all 6E components except hFGF-2, with the addition of 500 nM SB-431542 (Selleckchem, cat. S1067) and 10 nM gastrin (Tocris, cat. 3006). […]
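Also: spheroids exposed to drugs for seven days before readout.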
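For viability, T/C in this document: 100% = DMSO vehicle control wells.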

`C#Cc1c(F)ccc2cc(O)cc(-c3ncc4c(N5CC6CCC(C5)N6)nc(OCC56CCCN5CC(F)C6)nc4c3F)c12` (stereo unspecified): the IC50 is > 10000 nM. In addition, the viability, T/C (compound 0.0316 µM) was 118% and 106%. Besides, the viability, T/C (compound 0.1 µM) was 92.7% and 95.3%. For the same compound, the viability, T/C (compound 0.316 µM) was 117% and 113%. For the same compound, the viability, T/C (compound 1 µM) was 114% and 97.7%. Further, for the setting “compound 3.16 µM”, the viability, T/C is 119% and 104%. Moreover, the viability, T/C (compound 10 µM) was 98.7% and 112%.

Take `C=C(F)C(=O)N1CCN(c2nc(OCC3CCCN3C)nc3c2CCN(c2cccc4cccc(Cl)c24)C3)CC1CC#N` (stereo unspecified): the concentration for half-maximal inhibition (IC50) was 1940 nM and 2340 nM. The viability, T/C (compound 0.0316 µM) is 94.2% and 121%. In addition, the viability, T/C (compound 0.1 µM) is 111% and 115%. The viability, T/C (compound 0.316 µM) is 93.3% and 113%. For the same compound, the viability, T/C (compound 1 µM) is 111% and 123%. Under “compound 3.16 µM”, the viability, T/C was 11.1% and 26%. In addition, where the note is “compound 10 µM”, the viability, T/C was 1.51% and 0.48%.

Take `C=CC(=O)N1CCN(c2nc(=O)n(-c3c(C)ccnc3C(C)C)c3nc(-c4c(O)cccc4F)c(F)cc23)C(C)C1` (stereo unspecified): the IC50 is > 10000 nM. Further, the viability, T/C (compound 0.0316 µM) was 91.5% and 117%. For the same compound, the viability, T/C (compound 0.1 µM) was 95.7% and 105%. In addition, where the note is “compound 0.316 µM”, the viability, T/C is 121% and 122%. In addition, the viability, T/C (compound 1 µM) is 131% and 149%. For the same compound, the viability, T/C (compound 3.16 µM) was 174% and 201%. Also, the viability, T/C (compound 10 µM) was 161% and 180%.

Take `C=CC(=O)Nc1cc(Nc2nccc(-c3cn(C)c4ccccc34)n2)c(OC)cc1N(C)CCN(C)C`: the IC50 was > 300 nM. Moreover, the viability, T/C (compound 0.000949 µM) was 112% and 158%. Moreover, for the setting “compound 0.003 µM”, the viability, T/C was 91.3% and 98.2%. Also, under “compound 0.00949 µM”, the viability, T/C was 107% and 117%. Further, the viability, T/C (compound 0.03 µM) is 99.9% and 90.9%. Further, the viability, T/C (compound 0.0949 µM) was 108% and 118%. For the setting “compound 0.3 µM”, the viability, T/C is 101% and 98.4%.

Regarding `CC(C)CC(NC(=O)C(Cc1ccccc1)NC(=O)c1cnccn1)B(O)O` (stereo unspecified), the IC50 was < 0.949 nM. Further, the viability, T/C (compound 0.000949 µM) was 2.8% and 2.47%. Besides, the viability, T/C (compound 0.003 µM) was 0.77% and 0.18%. Also, the viability, T/C (compound 0.00949 µM) is 0.19% and 0.16%. In addition, the viability, T/C (compound 0.03 µM) was 0.36% and 0.17%. For the same compound, under “compound 0.0949 µM”, the viability, T/C is 0.46% and 0.15%. Also, the viability, T/C (compound 0.3 µM) was 0.24% and 0.15%.

For `CC(CO)NC(=O)c1cc(-c2ccc(Cl)cc2)nn(-c2cnn(C)c2)c1=O` (stereo unspecified), the concentration for half-maximal inhibition (IC50) is > 10000 nM. Moreover, the viability, T/C (compound 0.0316 µM) is 92.5% and 94.5%. Where the note is “compound 0.1 µM”, the viability, T/C is 89.1% and 85.5%. Moreover, where the note is “compound 0.316 µM”, the viability, T/C is 94.6% and 92.7%. Further, the viability, T/C (compound 1 µM) is 93.5% and 99.6%. Further, for the setting “compound 3.16 µM”, the viability, T/C was 110% and 99.5%. Also, the viability, T/C (compound 10 µM) was 82.2% and 94%.

Turning to `CC(Nc1ccc2c(c1)OCCn1cc(N3C(=O)OCC3C(F)F)nc1-2)C(N)=O` (stereo unspecified), the half-inhibitory concentration (IC50) was 294 nM and 249 nM. Further, the viability, T/C (compound 0.0316 µM) was 94.9% and 74%. Further, the viability, T/C (compound 0.1 µM) is 71% and 67.6%. For the same compound, under “compound 0.316 µM”, the viability, T/C is 50.9% and 45.7%. Under “compound 1 µM”, the viability, T/C is 28.4% and 20.6%. The viability, T/C (compound 3.16 µM) was 21.2% and 20.3%. Besides, for the setting “compound 10 µM”, the viability, T/C was 16.1% and 11.5%.

Consider `CC1(C)CCC(CN2CCN(c3ccc(C(=O)NS(=O)(=O)c4ccc(NCC5CCOCC5)c([N+](=O)[O-])c4)c(Oc4cnc5[nH]ccc5c4)c3)CC2)=C(c2ccc(Cl)cc2)C1`, for which the IC50 was 6140 nM and 6390 nM. Further, the viability, T/C (compound 0.0316 µM) was 107% and 106%. Also, the viability, T/C (compound 0.1 µM) was 90.2% and 119%. Also, the viability, T/C (compound 0.316 µM) is 117% and 124%. Besides, the viability, T/C (compound 1 µM) was 103% and 118%. For the same compound, where the note is “compound 3.16 µM”, the viability, T/C is 159% and 150%. The viability, T/C (compound 10 µM) is 1.83% and 3.19%.
